Bridges are numbered along the chain shown (N, C = ends). Where no end group is shown, it is not given here.

CCRF-CEM migration data for one substance are collected here from publication PMC3772838, “Preclinical Development of a Novel Class of CXCR4 Antagonist Impairing Solid Tumors Growth and Metastases” (PLoS ONE, 2013).

The test concerns CCRF-CEM human T-Leukemia cells. In words: CCRF-CEM cell migration. It counts as cell-based. The conditions noted are these: Figure S4. How it is done:
[The procedure below names another cell line; the source lists this cell line under the same test.] Migration was assayed in 24-well Transwell chambers (Corning Inc., Corning, NY) using inserts with an 8-µm pore membrane. Membranes were precoated with collagen (human collagen type I/III) and fibronectin (20 µg/mL each). PES43 cells were placed in the upper chamber (2.5×10^5 cells/well) in IMDM containing 1% BSA (migration media) in the presence of AMD3100 or peptides; 100 ng/mL CXCL12 was added to the lower chamber. After 16 h incubation, cells on the upper surface of the filter were removed using a cotton wool swab; migration of cells in migration media alone was compared with migration in media containing CXCL12. The cells were counted in ten different fields (original magnification ×40). The migration index was defined as the ratio between migrating cells in the experimental group and migrated cells in the control group. For the wound closure assay, tested cells were allowed to reach confluence in six-well plates containing serum-depleted growth medium and scratched with pipette tips to make wounds. The wound closure was observed microscopically 6 hours post-wounding (OKO Time Lapse).
(TIF) Click here for additional data file.

As to “Arg-Ala-[Cys-Arg-Phe-Phe-Cys] (RACRFFC; disulfide 3-7) [Peptide R, CXCL12-mimetic disulfide-cyclic peptide]”, the CCRF-CEM migration entry was “inhibited CCRF-CEM human T-Leukemia cells migration in a dose-dependent manner”.
